Test results from patent US8212104B2, “Model of experimentally induced chronic pain and uses thereof” (The Board of Regents of the University of Texas System, priority 2008, dated 2012).
Entries after “also recorded” stand apart in the source; their conditions may differ.

Tests used:
[1] = system: peripheral nerve injury sheep model; experiment: Mechanical hyperalgesia (pin-prick test) after intrathecal morphine in the peripheral nerve injury sheep model; assay type: in vivo
Experimental: Adult female merino sheep weighing 40-60 kg were used to produce the peripheral nerve injury sheep model. All experimental procedures were approved by the Institutional of Animal Care and Use Committee at the University of Texas Medical Branch and were in accordance with the guidelines of National Institutes of Health and of the International Association for the study of Pain (IASP).
Sheep were fasted for 24 hours prior to surgery. General anesthesia was given followed by 600 mg IM injection of ketamine. An intravenous line was placed in the external jugular and the sheep received an additional 200 mg of ketamine IV and a prophylactic dose of cefazolin 1 g IV. After intubation, the sheep were maintained on 2% isoflurane in oxygen and mechanically ventilated. The sheep received IV fluids (0.9% Normal Saline). Body temperature was maintained with a circulating water pad. Oxygen saturation was monitored and maintained between 98-100%. Heart rate and blood pressure remained within normal limits and required no adjustments. Sheep was positioned prone with hind limbs positioned cephalad beside the abdomen. A positioning pillow was placed under the chest, raising the head and chest and allowing a lordotic curve of the lumbar spine. The sheep was loosely secured to the operating table. The lumbrosacral area was sterilely prepped with betadine and draped. A vertical midline incision was made over the L-6 to S-2 vertebrae. The spinous processes of L6 and S1 were partially resected to allow greater exposure of the dura. A purse string of 7-O nylon was placed in the dura, the dura carefully lifted and nicked. A RACZ epidural catheter (16 Ga×36) catheter with snaplock catheter/syringe adapter was placed into the subarachnoid space and advanced until the 10 cm mark was at the opening of the dura. Once CSF flow through the catheter was confirmed, the dura was pulled close to the catheter with the purse string and the catheter was secured to the muscle fascia. The dura, muscle fascia, and skin were closed. The catheter was looped and secured subcutaneously. The catheter was then tunneled and secured to the skin of the sheep with suture. The sheep was allowed 5 days to recover and was tested for neurologic deficits. Animals with neurologic deficits were sacrificed.
(§1) After the placement of an intrathecal catheter and the documentation of a lack of any neurological deficits, common peroneal nerve injury surgery was performed. As described previously, the sheep was premedicated with intramuscular ketamine, intubated and mechanically ventilated. The sheep was positioned laterally and the hind leg was sterilely prepared and draped. A vertical incision was made mid-thigh. The semimembranous and semitendinous muscle bellies were separated to expose the common peroneal nerve and tibial nerve. The common peroneal nerve was ligated with 2-0 silk suture and cut distally. A 1-cm segment was removed from the distal stump to prevent re-growth. Fascia and skin were closed.
With the sheep in the stanchion, a pin-prick test was performed using a 300 gram von-frey filament. […] The duration of hindlimb withdrawal was recorded^14.
Three weeks after peroneal nerve injury, the analgesic effect of morphine was measured. […]
Baseline withdrawal thresholds to mechanical stimulation were measured prior to morphine administration and at ten-minute intervals post-morphine. The anti-nociceptive effect of morphine time course was determined by measuring the pin-prick frequency every 10-min after intrathecal administration. […]

[2] = system: peripheral nerve injury sheep model; experiment: Mechanical allodynia (hindlimb withdrawal threshold, von Frey filaments) after intrathecal morphine in the peripheral nerve injury sheep model; assay type: in vivo; settings: intrathecal morphine sulfate 50 to 1200 micrograms, three weeks after peripheral nerve injury
Experimental: as §1, with “closed. […]” for “closed.”
Based on the response to the first von-frey stimuli presented the following stimulus was increased if a negative or null response or decreased if there was a positive response. The 50% response threshold was calculated using the formula: 50% g threshold=(10^[x^f^+κδ]/10,000. The 50% withdrawal thresholds to von-frey filaments were used to assess the behavior change. To avoid inter-observer variability, one investigator did the majority of behavioral experiments. Additionally, each sheep did only one behavioral test per day.
Baseline withdrawal thresholds to mechanical stimulation were measured prior to morphine administration and at ten-minute intervals post-morphine. […]

[3] = 200 micrograms intrathecal, measured by pin prick
[4] = intrathecal 2 to 1200 micrograms, three weeks after peroneal nerve injury, 30 minutes after drug delivery

CN1CC[C@]23c4c5ccc(O)c4O[C@H]2[C@@H](O)C=C[C@H]3[C@H]1C5 [morphine]
duration of analgesia [1, 3]: > 120 min
time of peak analgesia [1, 3]: 30 min
reduction in efficacy, ipsilateral compared to contralateral dose response curve [1, 4]: approximately 4 fold
reduction in potency, ipsilateral compared to contralateral dose response curve [1, 4]: approximately 2 fold
analgesic effect after nerve injury / injured versus contralateral hindlimb (in words) ([1]; intrathecal, ipsilateral (nerve injured) vs contralateral (non-injured) hindlimb): significantly reduced; also recorded: much less analgesia; also recorded: more potency on the contralateral
hindlimb withdrawal threshold, reversal (contralateral hindlimb) [2]: completely reversed
increase of hindlimb withdrawal threshold on the ipsilateral hindlimb [2]: 36%
